This is an account of results in patent publication US20260315434A1, “USE OF GUAIACOL SESQUITERPENE LACTONE DERIVATIVES” (NANJING UNIVERSITY OF CHINESE MEDICINE, priority 2023, published 2026).

In general, solubility refers to how much of the substance goes into solution per volume. A low value points to a poorly soluble substance.

The subject of one data set is T cells / MDSCs. Kind of data set: Promotion of T cell proliferation in a co-culture model of MDSCs and T cells. The data set is classed as cell-based, mouse. The following applies: for activation at 1 µM: Mus musculus, T-cell, 12 h, read-out: T-cell proliferation rate (%), 1 μM, MDSCs treated 12 hours, co-culture of MDSCs and T cells, compared to the control group; for T-cell proliferation rate (%): MDSCs treated 12 hours, co-culture of MDSCs and T cells, compared to the control group. A digest of the protocol:
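Bone-marrow MDSCs, after compound treatment, were co-cultured 48 h at 1:1 with CFDA-SE-labelled (10 μM solution), activated splenic T cells. Proliferation of CD3+ T cells was read by flow cytometry.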

Data set [1] is described as follows: Water solubility testing of compounds (HPLC). The settings on record: deionized water, 37 °C.
A short description of data set [2]: Conversion (release) of prodrug salts to parent compound in HEPES buffer pH 7.4. The following applies: for degraded at 1 h / degraded at 2 h / degraded at 4 h / degraded at 8 h / degraded at 12 h: hepes buffer, pH 7.4, HEPES pH 7.4, 37 °C; for Release rate (conversion to Compound 83): HEPES pH 7.4, 37 °C. The data set is classed as in vitro ADME. As for the experimental part: (§1) Pharmaceutically acceptable salts of guaiane-type sesquiterpene lactone derivatives were selected and evaluated for their conversion rates to Compound 1 and Compound 83 in plasma and HEPES buffer, with results shown in Tables 2-1, 2-2, 3-1, and 3-2.
Experimental Method: Preparation of HEPES 7.4 Solution: Dissolve 1.6 g NaCl, 0.074 g KCl, 0.027 g Na2HPO4, 0.2 g glucose, and 1 g 4-(2-Hydroxyethyl)piperazine-1-ethanesulfonic acid (HEPES) solution in 90 mL distilled water. Adjust the pH to 7.4 using 0.5 M NaOH, then dilute to a final volume 100 mL with distilled water.
(§2) Sample Analysis: Dissolve 0.6 mg of the compound in 250 μL of deionized water separately. Add 250 μL of mouse serum or HEPES 7.4 solution to the sample, incubate at a constant temperature of 37° C., and collect samples at different time points. Pipette 20 μL of the sample to an EP tube, add 60 μL of methanol, vortex to mix thoroughly, and centrifuge at 12,000 rpm at 4° C. for 10 min. At 1 h, 2 h, 4 h, 8 h, and 12 h respectively, collect the supernatant for HPLC analysis. Inject 10 μL of sample and record the corresponding peak areas. Chromatographic conditions: Hanbang C18 column (4.6×250 mm, 5 μm); mobile phase: acetonitrile: […] ammonium formate solution=60:40; flow rate 1.0 mL/min; detection wavelength 210 nm; column temperature 30° C.

A short description of data set [3]: Conversion (release) of prodrug salts to parent compound in mouse plasma. The data set is classed as in vitro ADME. The settings on record: 37 °C; for metabolised at 1 h / metabolised at 2 h / metabolised at 4 h / metabolised at 8 h / metabolised at 12 h: mouse, plasma. As for the experimental part:
as §1
Plasma Preparation: Collect mouse plasma into an EP tube pre-loaded with sodium heparin, centrifuge at 8000 rpm for 10 minutes at 4° C., and then collect the supernatant.
as §2

Another data set relates to MDSCs. Kind of data set: Inhibition of MDSC chemotaxis (Transwell, tumor-conditioned medium). The data set is classed as cell-based, mouse. The settings on record: Mus musculus, read-out: Suppression Rate (MDSC chemotaxis). As for the experimental part: Hepa1-6 mouse hepatocellular carcinoma cells were uniformly seeded into 6-well plates. After cells reached confluence, supernatant was aspirated, and 1-1.5 mL fresh medium was added to each well. Following 24 h culture, supernatant was collected, centrifuged at 1600 rpm for 5 min, aspirated, and filtered through a 0.22 μm membrane to obtain tumor-conditioned medium for subsequent use. […] Under sterile conditions, remove the tibia, cut both ends of the bone, and aspirate the bone marrow into a 1 mL syringe. Repeat flushing into a 15 mL centrifuge tube. Centrifuge at 1600 rpm for 5 min to collect bone marrow cells. Wash twice with 1×PBS. […] Count cells, adjust density to 1×10^6 cells/mL, and uniformly seed into 24-well plates at 300 μL per well. […] Centrifuge at 1600 rpm for 5 min, remove supernatant, resuspend cells in 300 μL fresh medium, and place into Transwell chambers. […] Co-culture for 24 h.

The test system of a further data set is CCR2 mRNA. Kind of data set: Inhibition of CCR2 mRNA level in MDSCs. The data set is classed as cell-based. The settings on record: Mus musculus, 2 h, read-out: Suppression Rate (inhibition of CCR2 mRNA levels). As for the experimental part:
Under sterile conditions, the tibia was removed, both ends of the bone were cut, and bone marrow was repeatedly flushed into a 15 mL centrifuge tube using a 1 mL syringe filled with culture medium. Centrifuge at 1600 rpm for 5 min to collect bone marrow cells. […] Count cells and adjust density to 1×10^6 cells/mL in complete medium. Seed cells uniformly into 6-well plates at 2 mL per well. […] After incubation, collect cells into centrifuge tubes, centrifuge at 1600 rpm for 5 min, wash once with 1×PBS, and add 500 μL RNA extraction reagent to each tube. After centrifugation to obtain the pellet, add 20 μL DEPC-treated water to each tube to dissolve the pellet. Determine RNA concentration and reverse transcribe to cDNA. Add the cDNA, primers, and […] to a 96-well plate. Centrifuge at 4000 rpm for 5 min, then place in a PCR instrument for detection.

[4] abbreviates: 1 h, read-out: Release rate (conversion to Compound 1).
The mark [5] stands for this setting: 2 h, read-out: Release rate (conversion to Compound 1).
[6] abbreviates: 4 h, read-out: Release rate (conversion to Compound 1).
The mark [7] stands for this setting: 8 h, read-out: Release rate (conversion to Compound 1).
Where [8] appears, read: 12 h, read-out: Release rate (conversion to Compound 1).
[9] abbreviates: 1 h, read-out: Release rate (conversion to Compound 83).
Where [10] appears, read: 2 h, read-out: Release rate (conversion to Compound 83).
The mark [11] stands for this setting: 4 h, read-out: Release rate (conversion to Compound 83).
[12] abbreviates: 8 h, read-out: Release rate (conversion to Compound 83).
[13] abbreviates: 12 h, read-out: Release rate (conversion to Compound 83).

Molecules are shown by their SMILES. ≈ marks a conversion by molar mass, not a printed value. Where two headings read alike, the source gives them in different places.

For the compound `C[C@@]12CC[C@@H]3[C@H](OC(=O)[C@H]3CN3CCCC3)[C@@H]3[C@]1(CC[C@@]3(C)O)C2` [Compound 3], the activation at 1 µM in the data set on T cells / MDSCs was in the range of 20 to 40%. In data set [1], this compound showed a Water-solubility of 1.305 mg/mL.

Consider `C[C@@]12CC[C@@H]3[C@H](OC(=O)[C@H]3CN3CCCCC3)[C@@H]3[C@]1(CC[C@@]3(C)O)C2` [Compound 5], for which the activation at 1 µM in the data set with T cells / MDSCs lay in the range of 20 to 40%. Also, the Water-solubility in data set [1] was 0.730 mg/mL.

In the case of `C[C@@]12CC[C@@H]3[C@H](OC(=O)[C@H]3CN3CCOCC3)[C@@H]3[C@]1(CC[C@@]3(C)O)C2` [Compound 6], the activation at 1 µM in the data set with T cells / MDSCs was 0 to 20%. Further, the Water-solubility in data set [1] was 0.668 mg/mL.

Consider `CCOC(=O)[C@@H]1CCCN1C[C@@H]1C(=O)O[C@H]2[C@H]1CC[C@@]1(C)C[C@]13CC[C@@](C)(O)[C@H]23` [Compound 23], for which the degraded at 1 h in data set [2] (setting [4]) came to 6.2%. Further, the degraded at 2 h in data set [2] (setting [5]) stood at 14.3%. Also, the degraded at 4 h in data set [2] (setting [6]) was determined as 26.8%. For the same compound, in data set [2] (setting [7]), the degraded at 8 h stood at 41.1%. Besides, in data set [2] (setting [8]), the degraded at 12 h worked out at 52.8%. Moreover, in data set [3] (setting [4]), the metabolised at 1 h worked out at 7.2%. For the same compound, the metabolised at 2 h in data set [3] (setting [5]) is 14.3%. In data set [3] (setting [6]), the metabolised at 4 h amounted to 26.8%. In addition, the metabolised at 8 h in data set [3] (setting [7]) was 45.1%. In data set [3] (setting [8]), the metabolised at 12 h came out at 52.8%. In the data set on T cells / MDSCs (1 μM), the “T-cell proliferation rate (%)” value is on record as “+ (T-cell proliferation rate within the 0-20% range compared to the control group)”. The compound further displayed a Water-solubility in data set [1] of 362.3 mg/mL.

Turning to `C[C@@]12CC[C@@H]3[C@H](OC(=O)[C@H]3CN3CCC4(CC3)CC4)[C@@H]3[C@]1(CC[C@@]3(C)O)C2` [Compound 37], in data set [2] (setting [4]), the degraded at 1 h was determined as 7.2%. Moreover, in data set [2] (setting [5]), the degraded at 2 h stood at 16.8%. The degraded at 4 h in data set [2] (setting [6]) was 28.3%. For the same compound, the degraded at 8 h in data set [2] (setting [7]) worked out at 44.1%. The degraded at 12 h in data set [2] (setting [8]) came to 65.8%. Also, the metabolised at 1 h in data set [3] (setting [4]) amounted to 8.2%. The metabolised at 2 h in data set [3] (setting [5]) is 17.8%. The metabolised at 4 h in data set [3] (setting [6]) amounted to 29.3%. Also, the metabolised at 8 h in data set [3] (setting [7]) came out at 48.1%. The metabolised at 12 h in data set [3] (setting [8]) was 67.8%. For the same compound, the Water-solubility in data set [1] is 357.5 mg/mL.

As for `C[C@@]12CC[C@@H]3[C@H](OC(=O)[C@H]3CN3CCCCCCC3)[C@@H]3[C@]1(CC[C@@]3(C)O)C2` [Compound 38], the degraded at 1 h in data set [2] (setting [4]) was 6.9%. In addition, in data set [2] (setting [5]), the degraded at 2 h came out at 14.8%. Moreover, the degraded at 4 h in data set [2] (setting [6]) was 25.4%. Further, the degraded at 8 h in data set [2] (setting [7]) is 41.4%. The degraded at 12 h in data set [2] (setting [8]) came to 50.7%. Further, the metabolised at 1 h in data set [3] (setting [4]) came to 6.1%. In addition, the metabolised at 2 h in data set [3] (setting [5]) was determined as 14.5%. For the same compound, in data set [3] (setting [6]), the metabolised at 4 h was 25.4%. For the same compound, the metabolised at 8 h in data set [3] (setting [7]) was found to be 41.4%. In addition, the metabolised at 12 h in data set [3] (setting [8]) was determined as 49.7%. In data set [1], this compound had a Water-solubility of 250.9 mg/mL.

Turning to `C=C1C(=O)O[C@H]2[C@H]1CCC(C)=C1CC[C@@](C)(OC(=O)NCCN3CCOCC3)[C@@H]12` [Compound 78], in the data set on T cells / MDSCs (1 μM), the “T-cell proliferation rate (%)” value is listed as “+++ (T-cell proliferation rate >40% compared to the control group)”. Besides, the “T cell proliferation in MDSC-T cell co-culture” value with T cells / MDSCs (1 μM, result in words) was “significantly enhanced T-cell proliferation”. For the same compound, in the data set with MDSCs, the inhibition at 1 µM stood at 29% and the inhibition at 10 µM worked out at 67.1%. Besides, in the data set on CCR2 mRNA, the inhibition at 1 µM was determined as 23% and the inhibition at 10 µM is 52.7%. In data set [1], the Water-solubility is given as 0.200 mg/mL.

As for `CC1=C2CC[C@@](C)(OC(=O)N3CCCCC3)[C@@H]2[C@H]2OC(=O)[C@@H](CN3CCCC3)[C@@H]2CC1` [Compound 100], in data set [2] (setting [9]), the degraded at 1 h is 6.5%. Moreover, the degraded at 2 h in data set [2] (setting [10]) stood at 14%. Besides, the degraded at 4 h in data set [2] (setting [11]) worked out at 26.4%. For the same compound, the degraded at 8 h in data set [2] (setting [12]) stood at 45.2%. Further, the degraded at 12 h in data set [2] (setting [13]) was determined as 51.4%. The metabolised at 1 h in data set [3] (setting [9]) turned out to be 6.6%. Further, in data set [3] (setting [10]), the metabolised at 2 h turned out to be 13.8%. Besides, the metabolised at 4 h in data set [3] (setting [11]) was determined as 25.6%. In addition, in data set [3] (setting [12]), the metabolised at 8 h came out at 43.2%. Moreover, the metabolised at 12 h in data set [3] (setting [13]) was determined as 53%. In addition, in the data set on T cells / MDSCs (1 μM), the “T-cell proliferation rate (%)” value is “+ (T-cell proliferation rate within the 0-20% range compared to the control group)”. Further, the concentration in solution in data set [1] (water, Water-solubility) (solubility) was 145 mg/mL (≈ 336 mM).

`CC1=C2CC[C@@](C)(OC(=O)N3CCCCC3)[C@@H]2[C@H]2OC(=O)[C@@H](CN3CCCC3)[C@@H]2CC1` [Compound 101]: the “Release rate (conversion to Compound 83)” value in data set [2] (1 h, 60 min) worked out at 7.0%; in data set [2] (2 h, 120 min), 16.0%; in data set [2] (4 h, 240 min), 28.2%; in data set [2] (8 h, 480 min) it was 46.4%; in data set [2] (12 h, 720 min), 53.6%; in data set [3] (1 h, 60 min), 7.6%. The “Release rate (conversion to Compound 83)” value in data set [3] (2 h, 120 min) was 16.6%; in data set [3] (4 h, 240 min), 27.4%; in data set [3] (8 h, 480 min), 46.0%; in data set [3] (12 h, 720 min), 54.2%. For the same compound, the “T-cell proliferation rate (%)” value with T cells / MDSCs (1 μM) is on record as “+ (T-cell proliferation rate within the 0-20% range compared to the control group)”. This compound displayed a Water-solubility in data set [1] of 108.0 mg/mL.
